Patent US20220087962A1, “COMPOSITIONS AND METHODS FOR TREATING AGE-RELATED DISEASES OR CONDITIONS” (Arizona Board of Regents on Behalf of the University of …, priority 2019, published 2022)
Entries after “also recorded” stand apart in the source; their conditions may differ.

How the values were obtained:
tau = conditions: cultured human neurons; cited from earlier work
brain tissue = conditions: cited from earlier work
α-synuclein = α-synuclein (Homo sapiens, UniProt P37840); conditions: QA self-assembled fibrils; cited from earlier work
C. elegans [1] = assay: C. elegans lifespan with 3HAA supplementation; assay type: in vivo, Caenorhabditis elegans; conditions: 3HAA supplementation of worms
Method: 3HAA mediates lifespan extension by haao-1 knockdown. 3HAA is red in color. Worms with reduced HAAO turned visibly red with age. Using liquid chromatography-tandem mass spectrometry (LC-MS/MS), it was confirmed that these worms had elevated 3HAA (FIG. 3B). Next, it was assessed whether 3HAA may mediate the benefits of reducing haao-1. Indeed, worms supplemented with 3HAA were long-lived (FIG. 3C), mimicking haao-1 knockdown (FIG. 3D).

hemeoxygenase-1 (HO-1) = conditions: human cell culture; cited from earlier work
[2] = Direct interaction of 3HAA with H2O2 in vitro; conditions: addition of 3HAA in the absence of other media components
Excerpt: (§1) Superoxide dismutases degrade cellular superoxide to oxygen and H2O2.

Aβ = Aβ (Homo sapiens, UniProt P05067); conditions: buffered media; direct binding to Aβ; cited from earlier work
Aβ, sequence (P05067 672-713 limits assumed): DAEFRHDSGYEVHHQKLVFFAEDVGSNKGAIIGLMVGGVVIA

[3] = tested on: C. elegans expressing human Aβ1-42 in body wall muscle; assay: Paralysis in C. elegans expressing human Aβ1-42 in body wall muscle (Alzheimer's disease model); assay type: in vivo, Caenorhabditis elegans; conditions: 3HAA supplementation; transgenic Aβ1-42 in body wall muscle
Method: It was then tested whether 3HAA would prevent Aβ toxicity in vivo. In C. elegans, transgenic expression of the aggregate-prone 42 amino acid form of Aβ (Aβ1-42) in body wall muscle induces paralysis (Link C D. Proc Natl Acad Sci USA 1995, 92:9368-72). […] Next and as described below, 3HAA will be tested as a treatment for amyloid pathology in a cellular context more relevant to AD.

[4] = tested on: cultured human blood cells; conditions: cited from earlier work
[5] = tested on: C. elegans expressing a 35-unit polyglutamine repeat peptide in body wall muscle; assay: Paralysis in C. elegans expressing a 35-unit polyglutamine repeat peptide in body wall muscle (Huntington's disease model); assay type: in vivo, Caenorhabditis elegans; conditions: 3HAA supplementation; aggregate-prone polyglutamine repeat in body wall muscle
brains of rats = conditions: cited from earlier work
C. elegans [6] = assay: Endogenous H2O2 produced by C. elegans in vivo; design: species or system Caenorhabditis elegans; conditions: 3HAA supplementation
Excerpt: as §1

| Structure (SMILES) | tau phosphorylation (tau) | in vivo lipid peroxidation in brain tissue (brain tissue) | seeding of α-synuclein aggregation (α-synuclein) | lifespan (C. elegans [1]) | expression of hemeoxygenase-1 (HO-1) (hemeoxygenase-1 (HO-1)) | measureable H2O2 in vitro (direct degradation of H2O2) [2] | Aβ misfolding/aggregation in vitro (Aβ) | onset of paralysis (Aβ toxicity) [3] | LDL oxidation [4] | paralysis (polyglutamine repeat model) [5] | lipid peroxidation (brains of rats) | endogenous H2O2 produced by C. elegans in vivo (C. elegans [6]) |
| --- | --- | --- | --- | --- | --- | --- | --- | --- | --- | --- | --- | --- |
| O=C(O)c1cccnc1C(=O)O [QA, quinolinic acid] | drives tau phosphorylation | induces in vivo lipid peroxidation in brain tissue | seed and accelerate aggregation of α-synuclein; also recorded: seeding aggregation of α-synuclein |  |  |  |  |  |  |  |  |  |
| Nc1c(O)cccc1C(=O)O [3HAA, 3-hydroxyanthranilic acid] |  |  |  | long-lived; also recorded: extends lifespan; also recorded: robustly extended lifespan | induces expression of the antioxidant hemeoxygenase-1 (HO-1) | reduced measureable H2O2; also recorded: directly breaks down H2O2; also recorded: directly degrades H2O2; also recorded: direct degradation of hydrogen peroxide | prevents Aβ aggregation; also recorded: prevents Aβ misfolding through direct binding; also recorded: preventing misfolding and aggregation | delayed onset of paralysis; also recorded: delays paralysis; also recorded: delayed Aβ pathology | prevents LDL oxidation | delays paralysis | prevents | limited endogenous H2O2; also recorded: reduces H2O2 produced by C. elegans in vivo |
